Source: patent US7247622B2, “Pharmaceutical compositions containing oxapenem-3-carboxylic acids” (Amura Limited, priority 2000, dated 2007)

Legend:
[1] = system: C. freundii C2-con; assay: MIC by agar dilution (NCCLS), de-repressed Class C β-lactamases; assay type: cell-based; conditions: unit assumed
Experimental: (§1) The assays to determine the Minimum Inhibitory Concentration (MIC) were performed by Agar dilution according to NCCLS guidelines (2000).

[2] = system: S marcescens S2-con; assay: as above; assay type: cell-based; conditions: unit assumed
Experimental: as §1

[3] = system: E. cloacae 84-CON; assay: as above; assay type: cell-based; conditions: unit assumed
Experimental: as §1

[4] = system: E. cloacae Hennessy; assay: as above; assay type: cell-based; conditions: unit assumed
Experimental: as §1

[5] = Plasma blood levels in mice following subcutaneous administration; assay type: in vivo; conditions: for bioavailability: sub-cutaneous administration, compared with salts XOB and U
Experimental: The plasma blood levels in mice (mean of 3 per time point) of compositions XOB, YOB, PFOB and […] were measured at time points of 5, 10, 20 and 30 minutes following subcutaneous (SC) administration at a dose of 50 mg per kg. The results are shown in Table 2 and illustrated in FIG. 1.

[6] = system: E. cloacae P99; assay: MIC by agar dilution (NCCLS), de-repressed Class C β-lactamases; assay type: cell-based; conditions: unit assumed
Experimental: as §1

[7] = human serum; cited from earlier work
[8] = system: E. coli TEM-9; assay: MIC by agar dilution (NCCLS), Class A β-lactamases; assay type: cell-based; conditions: CAZ alone or 2:1 ratio of ceftazidime with oxapenem, unit assumed
Experimental: as §1

[9] = system: E. coli TEM-6; assay: MIC by agar dilution (NCCLS), Class A β-lactamases; assay type: cell-based; conditions: CAZ alone or 2:1 ratio of ceftazidime with oxapenem, unit assumed
Experimental: as §1

[10] = system: E. coli TEM-10; assay: MIC by agar dilution (NCCLS), Class A β-lactamases; assay type: cell-based; conditions: CAZ alone or 2:1 ratio of ceftazidime with oxapenem, unit assumed
Experimental: as §1

[11] = system: E. coli TEM-3; assay: MIC by agar dilution (NCCLS), Class A β-lactamases; assay type: cell-based; conditions: CAZ alone or 2:1 ratio of ceftazidime with oxapenem, unit assumed
Experimental: as §1

[12] = system: E. coli TEM-1; assay: MIC by agar dilution (NCCLS), Class A β-lactamases; assay type: cell-based; conditions: CAZ alone or 2:1 ratio of ceftazidime with oxapenem, unit assumed
Experimental: as §1

[13] = system: E. coli ATCC 25922; assay: MIC by agar dilution (NCCLS), Class A β-lactamases; assay type: cell-based; conditions: CAZ alone or 2:1 ratio of ceftazidime with oxapenem, unit assumed
Experimental: as §1

[14] = Chemical stability: half-life of hydrolysis in phosphate buffer by UV spectroscopy; assay type: physicochemical; conditions: 37° C., physiological phosphate buffer pH 7.4, 10^−4M oxapenem
Experimental: The half-lives of hydrolysis were determined at 37° C. in physiological phosphate buffer pH 7.4 by UV spectroscopy at 265 nm at a 10^−4M concentration of oxapenem

[15] = Stability in blood serum, determined microbiologically by agar diffusion test; assay type: in vitro ADME, bovine
Experimental: The blood serum stability was determined microbiologically using an agar diffusion test with Escherichia coli TEM 1 (penicillin resistant). The oxapenems were incubated with sterile bovine serum (OXOID) at 37° C. in 0.033% concentration.

[16] = CAZ alone or 1:1 ratio of ceftazidime with oxapenem
[17] = CAZ alone or 2:1 ratio of ceftazidime with oxapenem

C[C@@H](O)[C@H]1C(=O)N2C(C(=O)O)=C(C(C)(C)CCCN)O[C@H]12 [(5R,6R,1′R)-3-(4-amino-1,1-dimethylbutyl)-6-(1′-hydroxyethyl)-7-oxo-4-oxa-1-azabicyclo[3.2.0]hept-2-ene-2-carboxylic Acid]
MIC [1, 16]: 0.03 µg/mL | MIC [1, 17]: 2 µg/mL | MIC [2, 16]: 0.03 µg/mL | MIC [3, 16]: 4 µg/mL | MIC [3, 17]: 4 µg/mL | MIC [4, 17]: 4 µg/mL | concentration at 5 min ([5]; mouse, plasma, SC 50 mg per kg, 5 min, mean of 3, read-out: Conc. (mg/L) 5 min): 26.4 mg/L | concentration at 10 min ([5]; mouse, plasma, SC 50 mg per kg, 10 min, mean of 3, read-out: Conc. (mg/L) 10 min): 25.4 mg/L | concentration at 20 min ([5]; mouse, plasma, SC 50 mg per kg, 20 min, mean of 3, read-out: Conc. (mg/L) 20 min): 12.9 mg/L | concentration at 30 min ([5]; mouse, plasma, SC 50 mg per kg, 30 min, mean of 3, read-out: Conc. (mg/L) 30 min): 2.89 mg/L | bioavailability [5]: remarkably superior bioavailability

CC(C)(O/N=C(\C(=O)N[C@@H]1C(=O)N2C(C(=O)[O-])=C(C[n+]3ccccc3)CS[C@H]12)c1csc(N)n1)C(=O)O [CAZ, Ceftazidime]
MIC [6, 16]: 32 µg/mL | MIC [6, 17]: 32 µg/mL | MIC [1, 16]: 64 µg/mL | MIC [1, 17]: 64 µg/mL | MIC [2, 16]: 1 µg/mL | MIC [2, 17]: 1 µg/mL | MIC [3, 16]: > 64 µg/mL | MIC [3, 17]: > 64 µg/mL | MIC [4, 16]: > 64 µg/mL | MIC [4, 17]: > 64 µg/mL | in vivo biological half life [7]: 1.7-2.1 hrs | MIC [8]: > 64 µg/mL | MIC [9]: > 64 µg/mL | MIC [10]: > 64 µg/mL | MIC [11]: 16 µg/mL | MIC [12]: 0.25 µg/mL | MIC [13]: 0.25 µg/mL

CO/N=C(\C(=O)N[C@@H]1C(=O)N2C(C(=O)O)=C(CSc3nc(=O)c(=O)[nH]n3C)CS[C@H]12)c1csc(N)n1 [Ceftriaxon]
in vivo biological half life [7]: 5.8-8.7 hrs

O=C(O)[C@H]1/C(=C/CO)O[C@@H]2CC(=O)N21 [Clavulanate]
in vivo biological half life [7]: 0.7-1.4 hrs

C[C@@H](O)[C@H]1C(=O)N2C(C(=O)O)=C(SCCN=CN)C[C@H]12 [Imipenem]
in vivo biological half life [7]: 0.9 hrs

C[C@H](O)[C@H]1C(=O)N2C(C(=O)O)=C(C(C)(C)CCCN)O[C@H]12 [YOB, (5R,6R,1′S)-3-(4-amino-1,1-dimethylbutyl)-6-(1-hydroxyethyl)-7-oxo-4-oxa-1-azabicyclo[3.2.0]hept-2-ene-2-carboxylic Acid]
Conc. (mg/L) 5 min ([5]; plasma, SC 50 mg per kg, 5 min, mean of 3): 40.12 mg/L | Conc. (mg/L) 10 min ([5]; plasma, SC 50 mg per kg, 10 min, mean of 3): 44.88 mg/L | Conc. (mg/L) 20 min ([5]; plasma, SC 50 mg per kg, 20 min, mean of 3): 13.79 mg/L | Conc. (mg/L) 30 min ([5]; plasma, SC 50 mg per kg, 30 min, mean of 3): 10.4 mg/L | bioavailability [5]: remarkably superior bioavailability | Half-live of hydrolysis [14]: 7.0 h | stability in blood serum ([15]; bovine serum, 37° C., compared to XOB): far more stable than XOB in blood serum | Serum half life at 37° C. ([15]; sterile bovine serum, 0.033% concentration): 2.4 h | MIC [12]: 0.06 µg/mL | MIC [13]: 0.03 µg/mL
